# According to patent publication US11744843B2, “Identification and treatment of T-cell epitopes of short H2A oncohistones” (Fred Hutchinson Cancer Research Center, priority 2020, dated 2023):
# “Also recorded” adds a separate entry of the source.
# Legend:
# Assay type in all cases: cell-based
# [1] = system: diffuse large B-cell lymphoma cell line (A3/Kawakami); assay: Western blot of cleaved PARP, γ-H2A.X and tubulin after drug treatment, diffuse large B-cell lymphoma cell line A3/Kawakami; settings: compared with etoposide and doxorubicin
# Protocol: FIGS. 13A to 13B. […] FIG. 13A illustrates a Western blot gel as described in FIG. 11A. FIG. 13B illustrates graphs of the relative band intensity taken from the Western blot as described in FIG. 11B.
# (§1) In FIGS. 12 and 13, similar experiments were performed to compare the cytotoxicity of aclarubicin to etoposide and doxorubicin in additional lymphoma cell lines. In FIG. 12, the compounds cytotoxicity and side effects were assessed in the Hodgkin's lymphoma cell line, L-428. In FIG. 13, the compounds cytotoxicity and side effects were assessed in the diffuse large B-cell lymphoma cell line, A3/KAW.
# [2] = system: Hodgkin's lymphoma cell line (L-1236); assay: Western blot of cleaved PARP, γ-H2A.X and tubulin after drug treatment, Hodgkin's lymphoma cell line L-1236
# Protocol: FIGS. 11A to 11B. […] FIG. 11A illustrates a Western blot gel depicting marker expression following a 72 hour treatment with aclarubicin, etoposide, and doxorubicin. The markers are listed on the y-axis. The specific agents and amounts were added according to the labeling on the x-axis, which is fully described in the figure legend. FIG. 11B illustrates graphs of the relative band intensity taken from the Western blot and plotted according to drug concentration. The band intensity of PARP was used as an indicator of agent cytotoxicity. The band intensity of γ-H2A.X was used as an indicator of DNA damage (side effect). The band intensity of tubulin was used as a control.
# (§2) FIG. 11A is a Western blot gel assessing expression of the markers listed on the y-axis. The specific cancer therapeutics and the amounts used are indicated by the numbers along the x-axis and the corresponding figure legend. In this Example, aclarubicin's cytotoxicity on lymphoma cells was assessed by determining the amount of cleaved PARP, which was assessed as band intensity (FIG. 11B) from the Western blot (FIG. 11A). In this Example, aclarubicin's corresponding DNA damage was assessed by measuring the amount of γ-H2A.X, which was assessed as band intensity (FIG. 11B) from the Western blot (FIG. 11A).
# lymphoma cells = assay: Western blot of cleaved PARP and γ-H2A.X, summary over the three lymphoma cell lines (FIGS. 11-13)
# Protocol: as §2, §1
# [3] = system: Hodgkin's lymphoma cell line (L-428); assay: Western blot of cleaved PARP, γ-H2A.X and tubulin after drug treatment, Hodgkin's lymphoma cell line L-428
# Protocol: FIGS. 12A to 12B. […] FIG. 12A illustrates a Western blot gel as described in FIG. 11A. FIG. 12B illustrates graphs of the relative band intensity taken from the Western blot as described in FIG. 11B.
# as §1
# [4] = L-1236, 72 hour treatment, 100 nM to 5.0 μM, compared with etoposide and doxorubicin
# [5] = L-428, 72 hour treatment, compared with etoposide and doxorubicin
compound,measurement,setting,value
CC[C@@]1(O)C[C@H](O[C@H]2C[C@H](N(C)C)[C@H](O[C@H]3C[C@H](O)[C@H](O[C@H]4CCC(=O)[C@H](C)O4)[C@H](C)O3)[C@H](C)O2)c2c(cc3c(c2O)C(=O)c2c(O)cccc2C3=O)[C@H]1C(=O)OC [aclarubicin],cytotoxicity and side effects (relative band intensities),[1]; A3/KAW,best combination of anti-neoplastic activity while having fewer harmful side effects
same,"DNA damage (band intensity of γ-H2A.X, side effect)","[1]; A3/Kawakami, 72 hour treatment",minimizing DNA damage
same,apoptosis / cytotoxicity (band intensity of PARP),"[1]; A3/Kawakami, 72 hour treatment",maximizes apoptosis
same,"DNA damage (band intensity of γ-H2A.X, side effect)",[2]; [4],minimizing DNA damage
same,apoptosis / cytotoxicity (band intensity of PARP),[2]; [4],maximizes apoptosis
same,"relative band intensity of PARP/tubulin, PARP/γ-H2A.X and γ-H2A.X/Tubulin","[2]; L-1236, compared with etoposide and doxorubicin",best combination of anti-neoplastic activity while having fewer harmful side effects
same,DNA damage as measured by γ-H2A.X; side effect profile,"lymphoma cells; FIGS. 11-13, compared with doxorubicin or etoposide",much less DNA damage; also recorded: much more favorable side effect profile than doxorubicin
same,killing of lymphoma cells as measured by cleaved PARP; anti-neoplastic activity,"lymphoma cells; FIGS. 11-13, three lymphoma cell lines",efficiently kills lymphoma cells; also recorded: more anti-neoplastic activity than etoposide
same,"DNA damage (band intensity of γ-H2A.X, side effect)",[3]; [5],minimizing DNA damage
same,apoptosis / cytotoxicity (band intensity of PARP),[3]; [5],maximizes apoptosis
same,cytotoxicity and side effects (relative band intensities),"[3]; L-428, compared with etoposide and doxorubicin",best combination of anti-neoplastic activity while having fewer harmful side effects
